Experimental data published in US8916536B2, “Bone-targeting bisphosphonate duplex drugs” (priority 2010, dated 2014).
Counter-ions that a name gives are not always drawn. Each block holds one compound with its values, some of them ahead of it.

What was measured:
[1] = Hydroxyapatite binding of nucleoside-BPs; assay type: physicochemical
Experimental: It is known that the BPs moiety of conjugates preserves its high affinity for the bone matrix even when coupled to a bulk residue^17,41 The high affinity to the bone matrix is based on the strong binding properties of BPs to hydroxyapatite^42, 43, 44. For this reasons, we analyzed the adsorption properties of 5-FdU-ale and 5-FdU to hydroxyapatite.
5-FdU (246 mg, 1 mmol) or 5-FdU-ale (475 mg) were dissolved in distilled water (100 ml). The A260-units of the obtained solution and the absorbance ratios of 250/260 and 280/260 were determined using an UV-spectrophotometer. After addition of solid hydroxyapatite as listed in Table 2 the obtained suspension was stirred at room temperature for 24 h. Then, an aliquot (1 ml) of the suspension was filtered through a sterile filter and the A260-units of the filtrate were measured. The amount of drug bound to hydroxyapatite was calculated on the basis of the decreased A260-units of the suspension.
(§1) A solution of 5-FdU-ale (475 mg) in 100 ml H2O was acidified to pH 2 by adding HCl and stirred at 50° C. for 24 h, followed by neutralization with solid sodium carbonate. UV-active degradation products were not detectable at 254 nm by TLC-analysis with CHCl3/MeOH (80:20) using silica gel plates. The hydroxyapatite binding of the pretreated 5-FdU-ale was analyzed as described above.

[2] = test system: OVCAR-3; assay: NCI 60-cell line in vitro screen (SRB), growth percent; assay type: cell-based; details: OVCAR-3, Ovarian cancers; 10 μM, 48 h incubation; 100% = growth without drug
[3] = test system: 60 tumor cell lines; assay: NCI 60-cell line in vitro screen, whole panel; assay type: cell-based; details: 48/59 cell lines; 10 μM, 48 h incubation
[4] = test system: HL-60 (TB); assay: NCI 60-cell line in vitro screen (SRB), growth percent; assay type: cell-based; details: Leukemia, 10 μM, 48 h incubation, 100% = growth without drug
[5] = test system: SF-268; assay: as above; assay type: cell-based; details: SF-268, CNS cancer; 10 μM, 48 h incubation; 100% = growth without drug
[6] = test system: SF-539; assay: as above; assay type: cell-based; details: SF-539, CNS cancer; 10 μM, 48 h incubation; 100% = growth without drug
[7] = test system: HOP-62; assay: as above; assay type: cell-based; details: HOP-62, Non-small cell lung cancer; 10 μM, 48 h incubation; 100% = growth without drug
[8] = test system: EKVX; assay: as above; assay type: cell-based; details: Non-small cell lung cancer, 10 μM, 48 h incubation, 100% = growth without drug
[9] = test system: MDA-MB-435; assay: as above; assay type: cell-based; details: MDA-MB-435, Melanomas; 10 μM, 48 h incubation; 100% = growth without drug
[10] = Stability in acidic conditions (pH 2, 50° C., 24 h; TLC / UV ratio); assay type: physicochemical
Experimental: as §1
The binding study was also used for an indirect assessment of the stability of the nucleoside-BPs in acidic conditions. Binding was reduced by 13% compared to the untreated compound when a solution of 5-FdU-ale was acidified to pH 2 and kept at 50° C. during 24 h prior to the adsorption to hydroxyapatite. The unchanged A250/260 and 280/260 UV-ratio indicate that no cleavage of 5-FdU-ale into the monomer 5-FdU+ ale occurs during treatment with hydroxyapatite under the used conditions.
Thus, the absence of UV-active compounds allows to conclude that 5-FdU-ale is very stable in acidic conditions.

[11] = test system: MALME-3M; assay: NCI 60-cell line in vitro screen (SRB), growth percent; assay type: cell-based; details: Melanomas, 10 μM, 48 h incubation, 100% = growth without drug
[12] = test system: SNB-75; assay: as above; assay type: cell-based; details: SNB-75, CNS cancer; 10 μM, 48 h incubation; 100% = growth without drug
[13] = test system: NCI-H322M; assay: as above; assay type: cell-based; details: Non-small cell lung cancer, 10 μM, 48 h incubation, 100% = growth without drug
[14] = test system: CAKI-1; assay: as above; assay type: cell-based; details: CAKI-1, Renal cancers; 10 μM, 48 h incubation; 100% = growth without drug
[15] = test system: 6 different tumor cell lines; details: 6 days of incubation, in average, read-out: concentration for 50% growth inhibition; cited from earlier work
[16] = hydroxyapatite 7 g, drug in 100 ml water, 24 h room temperature
[17] = hydroxyapatite 5 g, drug in 100 ml water, 24 h room temperature
[18] = hydroxyapatite 7 g, acid pretreatment (pH 2, 50° C., 24 h, then neutralized)

Bound drug % [1, 16]: 15% | Bound drug mg [1, 16]: 37 mg
SMILES: O=c1[nH]c(=O)n([C@H]2C[C@H](O)[C@@H](CO)O2)cc1F [5-FdU, 2′-deoxy-5-fluorouridine, reference compound]

SMILES: O=c1nc(NCCCC(O)(P(=O)(O)O)P(=O)(O)O)c(F)cn1C1CC(O)C(CO)O1 (centres unmarked) [6a, N^4-[butyl-(4-hydroxy-4-phosphono)phosphonate]-5-fluoro-2′-deoxycytidine]
Growth [%] [2]: 88.34% | reduction of binding compared to the untreated compound ([1]; acidified to pH 2, 50° C., 24 h prior to adsorption): 13% | Bound drug % [1, 17]: 41% | Bound drug mg [1, 17]: 195 mg | adsorption to hydroxyapatite relative to 5-FdU ([1]; hydroxyapatite 7 g): approximately sixfold higher | Bound drug % [1, 18]: 74% | Bound drug mg [1, 18]: 352 mg | Bound drug % [1, 16]: 87% | Bound drug mg [1, 16]: 414 mg | growth inhibition in the other cell lines [3]: did not show any growth inhibition | Growth [%] [4]: 61.75% | Growth [%] [5]: 86.64% | Growth [%] [6]: 94.79% | Growth [%] [7]: 93.16% | Growth [%] [8]: 82.45% | Growth [%] [9]: 86.95% | cleavage into the monomers 5-FdU + ale ([10]; during treatment with hydroxyapatite, unchanged A250/260 and 280/260 UV-ratio): no cleavage | stability in acidic conditions ([10]; pH 2, 50° C., 24 h, TLC of supernatant, no UV-active compounds): very stable | Growth [%] [11]: 89.24% | Growth [%] [12]: 87.12% | Growth [%] [13]: 88.84% | Growth [%] [14]: 79.14%

SMILES: O=P(O)(O)C(Cl)(Cl)P(=O)(O)O [Clondronat]
IC50 [15]: 1 to 1410 µM

SMILES: NCCCC(O)(P(=O)(O)O)P(=O)(O)O [alendronate, (4-Amino-1-hydroxy-1-phosphonobutyl)phosphonate monosodium salt*3H20]
IC50 [15]: 11 to 1860 µM
